The values that follow come from patent publication US11945812B2, “Annulated 2-amino-3-cyano thiophenes and derivatives for the treatment of cancer” (Boehringer Ingelheim International GmbH, priority 2020, dated 2024).

The target in the first series is T1, KRAS G12C::SOS1 protein-protein interaction (Homo sapiens, UniProt P01116, C118S/C51S/C80L/G12C).
T1 construct: His6 (N); host or cells: E. coli
T1 sequence (P01116 1-169 isoform P01116-2 G12C/C51S/C80L/C118S): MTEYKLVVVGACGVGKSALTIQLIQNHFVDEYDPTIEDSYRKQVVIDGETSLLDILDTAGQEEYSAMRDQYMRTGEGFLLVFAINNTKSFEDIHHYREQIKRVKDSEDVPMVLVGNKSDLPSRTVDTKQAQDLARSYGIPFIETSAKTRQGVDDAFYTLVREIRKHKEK
In words: KRAS::SOS1 AlphaScreen binding assay. The conditions noted are these: KRAS G12C::SOS1 AlphaScreen. An excerpt:
KRAS::SOS1 AlphaScreen Binding Assay
Reagents: • GST-tagged SOS1 (564_1049_GST_TEV_ECO) produced in-house • GST-TEV-SOS1 (564-1049) is purchased from Viva Biotech Ltd. • The expression construct of KRAS G12C (amino acids 1-169 of reference sequence P01116-2 (uniprot), with additional mutations: C51S, C80L, and C118S) containing a C-terminal avi-tag was obtained by gene synthesis (GeneArt, Thermo Fisher) in donor vector (pDONR-221) and transferred by recombinant cloning into pDEST17 vector bearing an N-terminal His6-tag. The protein was expressed in E. coli and the purified protein was biotinylated with the E. coli biotin ligase (BirA) before usage. • GDP (Sigma Cat No G7127) • AlphaLISA Glutathione Acceptor Beads (PerkinElmer, Cat No AL109) • AlphaScreen Streptavidin Donor Beads (PerkinElmer Cat No 6760002) • Assay plates: Proxiplate-384 PLUS, white (PerkinElmer, Cat No 6008289)
Assay Buffer: • 1×PBS • 0.1% BSA • 0.05% Tween 20
7.5 nM (final assay concentration) KRAS G12C, 10 μM (final assay concentration) GDP and 5 nM (final assay concentration) GST-SOS1 are mixed in assay buffer prior to use and kept at room temperature.
AlphaLISA Glutathione Acceptor Beads and AlphaScreen Streptavidin Donor Beads are mixed in assay buffer at a concentration of 10 μg/mL (final assay concentration) each prior to use and kept at room temperature.
Compounds are diluted to a final start concentration of 100 μM and are tested in duplicate. Assay-ready plates (ARPs) are generated using an Access Labcyte Workstation with a Labcyte Echo 550 or 555 accoustic dispenser. For compound a start concentration of 100 μM, 150 nL of compound solution is transferred per well in 11 concentrations in duplicate with serial 1:5 dilutions.
The assay is run using a fully automated robotic system in a darkened room below 100 Lux. 10 μL of KRAS::SOS1 GDP mix is added into columns 1-24 to the 150 nL of compound solution (final dilution in the assay 1:100, final DMSO concentration 1%).
After 30 minutes incubation time 5 μL of bead mix is added into columns 1-23. Plates are kept at room temperature in a darkened incubator. After further 60 minutes incubation, the signal is measured using a PerkinElmer Envision HTS Multilabel Reader using the AlphaScreen specifications from PerkinElmer. Each plate contains the following controls: • diluted DMSO+KRAS::SOS1 GDP mix+bead mix • diluted DMSO+KRAS::SOS1 GDP mix
IC50 values are calculated and analyzed using a 4 parametric logistic model.
Tables of example compounds disclosed herein contain IC50 values determined using the above assay.
(Bead proximity is the source of the signal in Alpha formats.)
By IC50 is commonly meant the concentration at which inhibition is half-maximal. The compound `C=CC(=O)N1CCC(Oc2cc(N3CCN(C)C[C@@H]3C)nc(-c3cc(C4(C)CCCc5sc(N)c(C#N)c54)on3)n2)CC1` (stereo partly shown) [Ib-8] displayed a half-inhibitory concentration (IC50) of 13 nM.
For `C=CC(=O)N1[C@@H](C)CN(c2nc(-c3cc([C@@]4(C)CCCc5sc(N)c(C#N)c54)on3)nc(O[C@@H](C)[C@@H]3CCCN3C)c2Cl)C[C@@H]1C` [Ib-9], the IC50 was determined as 4 nM.
With `C=C(F)C(=O)N1[C@@H](C)CN(c2nc(-c3cc([C@@]4(C)CCCc5sc(N)c(C#N)c54)on3)nc(O[C@@H](C)[C@@H]3CCCN3C)c2Cl)C[C@@H]1C` [Ib-12], the half-inhibitory concentration (IC50) is 74 nM.
Compound `C=C(F)C(=O)N1CCC(Oc2cc(N3CCN(C)C[C@@H]3C)nc(-c3cc(C4(C)CCCc5sc(N)c(C#N)c54)on3)n2)CC1` (stereo partly shown) [Ib-13] had a half-maximal inhibitory concentration (IC50) of 278 nM.

For the next series, the target named is Ba/F3 cells bearing a KRAS G12C mutation (Homo sapiens, UniProt P01116, G12C, cells depend on it). In words: Ba/F3 cell model proliferation assay (AlamarBlue, 72 h). In kind it is cell-based. The conditions noted are these: Ba/F3 KRAS G12C cells, 72 h, 10% FCS, uncorrected; read-out: IC50 Ba/F3 KRASG12C. On the procedure: Ba/F3 Cell Model Generation and Proliferation Assay
Ba/F3 cells bearing a KRAS G12C mutation, sequence (P01116 whole entry G12C, canonical isoform): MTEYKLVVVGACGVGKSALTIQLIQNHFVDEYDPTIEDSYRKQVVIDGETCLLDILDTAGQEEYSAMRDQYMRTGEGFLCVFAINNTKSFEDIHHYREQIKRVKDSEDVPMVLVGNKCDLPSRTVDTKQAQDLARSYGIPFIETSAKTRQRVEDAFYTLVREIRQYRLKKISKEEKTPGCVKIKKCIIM
Plasmids containing KRASG12 mutants were obtained from GeneScript. To generate KRASG12-dependent Ba/F3 models, Ba/F3 cells were transduced with retroviruses containing vectors that harbor KRASG12 isoforms. Platinum-E cells (Cell Biolabs) were used for retrovirus packaging. Retrovirus was added to Ba/F3 cells. To ensure infection, 4 μg/mL polybrene was added and cells were spinfected. […] Cells with an infection efficiency of 10% to 20% were further cultivated and puromycin selection with 1 μg/mL was initiated. As a control, parental Ba/F3 cells were used to show selection status. Selection was considered successful when parental Ba/F3 cells cultures died. To evaluate the transforming potential of KRASG12 mutations, the growth medium was no longer supplemented with IL-3. Ba/F3 cells harboring the empty vector were used as a control. Approximately ten days before conducting the experiments, puromycin was left out.
All treatments were performed in technical duplicates. The assay is run using a fully automated robotic system. Treated cells were incubated for 72 h at 37° C. with 5% CO2. AlamarBlue™ (ThermoFisher), a viability stain, was added and fluorescence measured in the PerkinElmer Envision HTS Multilabel Reader.
A general note: Resazurin is reduced to fluorescent resorufin, in cell work by metabolically active cells.
In the case of `C=CC(=O)N1CCC(Oc2cc(N3CCN(C)C[C@@H]3C)nc(-c3cc(C4(C)CCCc5sc(N)c(C#N)c54)on3)n2)CC1` (stereo partly shown) [Ib-8], the GI50 was found to be 13.5 nM.
Still for that read-out and setting: the figure for `C=CC(=O)N1[C@@H](C)CN(c2nc(-c3cc([C@@]4(C)CCCc5sc(N)c(C#N)c54)on3)nc(O[C@@H](C)[C@@H]3CCCN3C)c2Cl)C[C@@H]1C` [Ib-9] is 2.9 nM; for `C=C(F)C(=O)N1[C@@H](C)CN(c2nc(-c3cc([C@@]4(C)CCCc5sc(N)c(C#N)c54)on3)nc(O[C@@H](C)[C@@H]3CCCN3C)c2Cl)C[C@@H]1C` [Ib-12] it is 67.9 nM.
As to `C=C(F)C(=O)N1CCC(Oc2cc(N3CCN(C)C[C@@H]3C)nc(-c3cc(C4(C)CCCc5sc(N)c(C#N)c54)on3)n2)CC1` (stereo partly shown) [Ib-13], the GI50 is 350 nM.

The series is the same for the next values; noted with them: corrected by plasma protein binding in 10% FCS (fraction unbound); read-out: IC50 Ba/F3 KRASG12C (corrected).
Regarding `C=CC(=O)N1CCC(Oc2cc(N3CCN(C)C[C@@H]3C)nc(-c3cc(C4(C)CCCc5sc(N)c(C#N)c54)on3)n2)CC1` (stereo partly shown) [Ib-8], the GI50 was 2.67 nM.
Same read-out and setting: the figure for `C=CC(=O)N1[C@@H](C)CN(c2nc(-c3cc([C@@]4(C)CCCc5sc(N)c(C#N)c54)on3)nc(O[C@@H](C)[C@@H]3CCCN3C)c2Cl)C[C@@H]1C` [Ib-9] is 0.08 nM; for `C=C(F)C(=O)N1[C@@H](C)CN(c2nc(-c3cc([C@@]4(C)CCCc5sc(N)c(C#N)c54)on3)nc(O[C@@H](C)[C@@H]3CCCN3C)c2Cl)C[C@@H]1C` [Ib-12] it is 1.09 nM; for `C=C(F)C(=O)N1CCC(Oc2cc(N3CCN(C)C[C@@H]3C)nc(-c3cc(C4(C)CCCc5sc(N)c(C#N)c54)on3)n2)CC1` (stereo partly shown) [Ib-13] it is 39.9 nM.

Tested on in a further series: not listed separately
In words: Plasma protein binding (equilibrium dialysis), mouse plasma. Format: in vitro ADME. The conditions noted are these: read-out: PPB mouse fu. As for the experimental part:
(§1) Plasma Protein Binding (PPB)
(§2) Binding of test compound to plasma was determined using equilibrium dialysis (ED) and quantitative mass spectrometry interfaced with liquid chromatography (LC-MS). In brief, ED was performed with dialysis devices consisting of two chambers separated by a semipermeable membrane with a molecular weight cut-off of 5-10 kg/mol. One chamber was filled with commercially sourced plasma (mouse and human plasma, respectively) or serum (10% FCS in PBS) containing 1-10 μmol/L test compound and the other chamber was filled with phosphate-buffer saline (PBS) with or without dextran. The dialysis chamber was incubated for 3-5 hours at 37° C. After incubation, protein was precipitated from aliquots of each chamber and the concentration of test compound in the supernatant of the plasma-containing compartment (cplasma) and of the buffer-containing compartment (Cbuffer) was determined by LC-MS. The fraction of unbound test compound (not bound to plasma) (fu) was calculated according to the following equation: […]
`C=CC(=O)N1CCC(Oc2cc(N3CCN(C)C[C@@H]3C)nc(-c3cc(C4(C)CCCc5sc(N)c(C#N)c54)on3)n2)CC1` (stereo partly shown) [Ib-8]: the fraction unbound is 0.001.
For the compound `C=CC(=O)N1[C@@H](C)CN(c2nc(-c3cc([C@@]4(C)CCCc5sc(N)c(C#N)c54)on3)nc(O[C@@H](C)[C@@H]3CCCN3C)c2Cl)C[C@@H]1C` [Ib-9], the fraction unbound worked out at 0.001.
Regarding `C=C(F)C(=O)N1[C@@H](C)CN(c2nc(-c3cc([C@@]4(C)CCCc5sc(N)c(C#N)c54)on3)nc(O[C@@H](C)[C@@H]3CCCN3C)c2Cl)C[C@@H]1C` [Ib-12], the fraction unbound is below 0.0004.
As for `C=C(F)C(=O)N1CCC(Oc2cc(N3CCN(C)C[C@@H]3C)nc(-c3cc(C4(C)CCCc5sc(N)c(C#N)c54)on3)n2)CC1` (stereo partly shown) [Ib-13], the fraction unbound is below 0.0005.

Tested on in the next series: not listed separately
Put plainly: Plasma protein binding (equilibrium dialysis), human plasma. Particulars: read-out: PPB human fu. Format: in vitro ADME. As for the experimental part: as §1, §2
(In general: In equilibrium dialysis free small molecules cross a membrane that holds back macromolecules.)
With `C=CC(=O)N1CCC(Oc2cc(N3CCN(C)C[C@@H]3C)nc(-c3cc(C4(C)CCCc5sc(N)c(C#N)c54)on3)n2)CC1` (stereo partly shown) [Ib-8], the fraction unbound came out at 0.014.
With `C=CC(=O)N1[C@@H](C)CN(c2nc(-c3cc([C@@]4(C)CCCc5sc(N)c(C#N)c54)on3)nc(O[C@@H](C)[C@@H]3CCCN3C)c2Cl)C[C@@H]1C` [Ib-9], the fraction unbound turned out to be 0.002.
As for `C=C(F)C(=O)N1[C@@H](C)CN(c2nc(-c3cc([C@@]4(C)CCCc5sc(N)c(C#N)c54)on3)nc(O[C@@H](C)[C@@H]3CCCN3C)c2Cl)C[C@@H]1C` [Ib-12], the fraction unbound was below 0.00052.
On the same count and under the same terms, the figure for `C=C(F)C(=O)N1CCC(Oc2cc(N3CCN(C)C[C@@H]3C)nc(-c3cc(C4(C)CCCc5sc(N)c(C#N)c54)on3)n2)CC1` (stereo partly shown) [Ib-13] is 0.005.

Tested on in a further series: not listed separately
Put plainly: Plasma protein binding (equilibrium dialysis), serum 10% FCS in PBS. In kind it is in vitro ADME. Particulars: bovine, 10% FCS in PBS (serum), read-out: PPB 10% FCS fu. On the procedure:
as §1, §2
For the compound `C=CC(=O)N1CCC(Oc2cc(N3CCN(C)C[C@@H]3C)nc(-c3cc(C4(C)CCCc5sc(N)c(C#N)c54)on3)n2)CC1` (stereo partly shown) [Ib-8], the fraction unbound is 0.198.
As to `C=CC(=O)N1[C@@H](C)CN(c2nc(-c3cc([C@@]4(C)CCCc5sc(N)c(C#N)c54)on3)nc(O[C@@H](C)[C@@H]3CCCN3C)c2Cl)C[C@@H]1C` [Ib-9], the fraction unbound turned out to be 0.026.
For the compound `C=C(F)C(=O)N1[C@@H](C)CN(c2nc(-c3cc([C@@]4(C)CCCc5sc(N)c(C#N)c54)on3)nc(O[C@@H](C)[C@@H]3CCCN3C)c2Cl)C[C@@H]1C` [Ib-12], the fraction unbound turned out to be 0.016.
Same read-out and setting: for `C=C(F)C(=O)N1CCC(Oc2cc(N3CCN(C)C[C@@H]3C)nc(-c3cc(C4(C)CCCc5sc(N)c(C#N)c54)on3)n2)CC1` (stereo partly shown) [Ib-13] the value was 0.114.

Another series has as its system ERK phosphorylation in NCI-H358_Cas9_SOS2. Put plainly: ERK phosphorylation assay 2 (AlphaLISA SureFire Ultra p-ERK1/2), SOS2 knock-out. In kind it is cell-based. The conditions noted are these: Homo sapiens, NCI-H358; assay 2 (marked with *); read-out: IC50 H358 pERK. The text has this: ERK Phosphorylation Assay
Materials Used for the Assay;
As for `C=CC(=O)N1CCC(Oc2cc(N3CCN(C)C[C@@H]3C)nc(-c3cc(C4(C)CCCc5sc(N)c(C#N)c54)on3)n2)CC1` (stereo partly shown) [Ib-8], the IC50 was determined as 12.7 nM.
In the case of `C=CC(=O)N1[C@@H](C)CN(c2nc(-c3cc([C@@]4(C)CCCc5sc(N)c(C#N)c54)on3)nc(O[C@@H](C)[C@@H]3CCCN3C)c2Cl)C[C@@H]1C` [Ib-9], the 50% inhibitory concentration (IC50) is 11.3 nM.
For the compound `C=C(F)C(=O)N1[C@@H](C)CN(c2nc(-c3cc([C@@]4(C)CCCc5sc(N)c(C#N)c54)on3)nc(O[C@@H](C)[C@@H]3CCCN3C)c2Cl)C[C@@H]1C` [Ib-12], the IC50 amounted to 830 nM.
Regarding `C=C(F)C(=O)N1CCC(Oc2cc(N3CCN(C)C[C@@H]3C)nc(-c3cc(C4(C)CCCc5sc(N)c(C#N)c54)on3)n2)CC1` (stereo partly shown) [Ib-13], the IC50 turned out to be 1140 nM.
